22 compounds from PubChem BioAssay AID1259407 (Chemical Carcinogenesis Research Information System (CCRIS), 2018) can be followed below.

This series has as its system CCRIS mutagenicity, Ames/micronucleus/aberration tests. Put plainly: CCRIS mutagenicity studies.
[1] abbreviates: Test System: AMES SALMONELLA TYPHIMURIUM, Strain/Indicator: TA100, Metabolic Activation: NONE, Method: STANDARD PLATE.
Setting [2] is: Test System: AMES SALMONELLA TYPHIMURIUM, Strain/Indicator: TA98, Metabolic Activation: NONE, Method: STANDARD PLATE.
Setting [3] is: Test System: AMES SALMONELLA TYPHIMURIUM, Strain/Indicator: TA98, Metabolic Activation: RAT, LIVER, S-9, AROCLOR 1254, Method: STANDARD PLATE.
Setting [4] is: Test System: AMES SALMONELLA TYPHIMURIUM, Strain/Indicator: TA100, Metabolic Activation: RAT, LIVER, S-9, AROCLOR 1254, Method: STANDARD PLATE.
Setting [5] is: Test System: AMES SALMONELLA TYPHIMURIUM, Strain/Indicator: TA1537, Metabolic Activation: NONE, Method: STANDARD PLATE.
The mark [6] stands for this setting: Test System: AMES SALMONELLA TYPHIMURIUM, Strain/Indicator: TA98, Metabolic Activation: NONE, Method: PREINCUBATION
[7] abbreviates: Test System: AMES SALMONELLA TYPHIMURIUM, Strain/Indicator: TA100, Metabolic Activation: NONE, Method: PREINCUBATION
The mark [8] stands for this setting: Test System: E. COLI, Strain/Indicator: WP2 UVRA, Metabolic Activation: NONE, Method: STANDARD PLATE.
Where [9] appears, read: Test System: AMES SALMONELLA TYPHIMURIUM, Strain/Indicator: TA1535, Metabolic Activation: NONE, Method: STANDARD PLATE.
The mark [10] stands for this setting: Test System: AMES SALMONELLA TYPHIMURIUM, Strain/Indicator: TA1535, Metabolic Activation: RAT, LIVER, S-9, AROCLOR 1254, Method: STANDARD PLATE.
Setting [11] is: Test System: AMES SALMONELLA TYPHIMURIUM, Strain/Indicator: TA1537, Metabolic Activation: RAT, LIVER, S-9, AROCLOR 1254, Method: STANDARD PLATE.

Each structure is given as a SMILES string. Activity calls are given as the source filed them. The rule behind the calls is not given here.

Consider `CCN(N=O)C(=O)Nc1ccccc1`, for which the mutagenic call (End Point: IN VITRO CHROMOSOMAL ABERRATIONS, Test System: CHINESE HAMSTER V79-E CELLS, Metabolic Activation: NONE) is “active; positive (structural changes)”.

Consider `O=C(O)[C@@H]1Cc2c([nH]c3ccccc23)[C@H]([C@H]2CCNC2=S)N1`, for which the mutagenic call is “inactive; negative” (Test System: AMES SALMONELLA TYPHIMURIUM, Strain/Indicator: TA98, Metabolic Activation: NONE); “inactive; negative” (Test System: AMES SALMONELLA TYPHIMURIUM, Strain/Indicator: TA98, Metabolic Activation: S-9); “inactive; negative” (Test System: AMES SALMONELLA TYPHIMURIUM, Strain/Indicator: TA100, Metabolic Activation: NONE); “inactive; negative” (Test System: AMES SALMONELLA TYPHIMURIUM, Strain/Indicator: TA100, Metabolic Activation: S-9).

For `CCCCN1C2c3ccccc3-c3ccccc3C21` (stereo unspecified), the mutagenic call is “active; positive” under setting [1] and “inactive; negative” (Test System: CHINESE HAMSTER V-79, Strain/Indicator: V-79/6-THIOGUANINE, Metabolic Activation: NONE, Method: STANDARD PLATE).

Regarding `C=C(CC(=O)OCC)C(=O)O`, the mutagenic call (Test System: Chinese Hamster ovary (CHO) cells, Metabolic Activation: None, Method: HGPRT/6-Thioguanine) is “inactive; negative”.

Take `CNC(=O)N(C)c1nc2ccccc2s1`: the mutagenic call was “inactive; negative” under setting [2], “inactive; negative” under setting [3], “inactive; negative” under setting [1] and “inactive; negative” under setting [4].

In the case of `CC(=O)Nc1nnc(-c2ccc([N+](=O)[O-])o2)s1`, the mutagenic call (Test System: AMES SALMONELLA TYPHIMURIUM, Strain/Indicator: TA100, Metabolic Activation: RAT, LIVER, S-9, KC500 OR PHENOBARBITAL, Method: LIQUID SUSPENSION) is “active; positive”.

Regarding `O=[N+]([O-])c1ccc2ccc3cc4c(c5ccc1c2c35)C1OC1[C@@H](O)[C@@H]4O` (stereo partly specified), for the setting “Test System: CHINESE HAMSTER OVARY, Strain/Indicator: CHO-K1-BH4 (HGPRT)/6-THIOGUANINE, Metabolic Activation: NONE”, the mutagenic call was “active; positive”.

Consider `O=C1C=CC(=O)C(c2ccc(Cl)cc2)=C1`, for which the mutagenic call (End Point: In vitro micronucleus, Test System: Chinese hamster lung V79 cells, Metabolic Activation: None) is “active; positive”.

Regarding `O=C(O)/C=C/C=C/CO`, for the setting “Test System: CHINESE HAMSTER V-79, Strain/Indicator: V-79 (HGPRT)/8-AZAGUANINE, Metabolic Activation: NONE”, the mutagenic call was “inactive; negative”.

With `[N-]=[N+]=Nc1ccc2c(Nc3ccc(NS(=O)(=O)CCCN)cc3)c3ccc(N=[N+]=[N-])cc3nc2c1`, under setting [5], the mutagenic call is “active; positive”.

`O=[N+]([O-])c1ccc2c(c1)nc(/C=N/OCc1ccccc1[N+](=O)[O-])n2Cc1ccc(Cl)cc1Cl`: the mutagenic call under setting [2] was “active; positive”; the mutagenic call (Test System: AMES SALMONELLA TYPHIMURIUM, Strain/Indicator: TA98, Metabolic Activation: RAT, LIVER, S-9, PHENOBARBITAL AND BETA-NAPHTHOFLAVONE, Method: STANDARD PLATE) is “active; positive”; the mutagenic call under setting [1] was “active; positive”; the mutagenic call (Test System: AMES SALMONELLA TYPHIMURIUM, Strain/Indicator: TA100, Metabolic Activation: RAT, LIVER, S-9, PHENOBARBITAL AND BETA-NAPHTHOFLAVONE, Method: STANDARD PLATE) was “active; positive”.

With `CCCN(C)N=O`, the mutagenic call runs as follows: (Test System: CHINESE HAMSTER V-79, Strain/Indicator: V-79/8-AZAGUANINE, Metabolic Activation: RAT, LIVER, S-15, PHENOBARBITAL, Method: STANDARD PLATE) “active; positive”; (Test System: CHINESE HAMSTER V-79, Strain/Indicator: V-79/OUABAIN, Metabolic Activation: HAMSTER, HEPATOCYTES, Method: CELL-MEDIATED) “active; positive”.

As to `O=C(N=c1sn(C(=O)c2ccc([N+](=O)[O-])cc2)c2ccccc12)c1ccc([N+](=O)[O-])cc1`, the mutagenic call (Test System: AMES SALMONELLA TYPHIMURIUM, Strain/Indicator: TA100, Metabolic Activation: S-9, Method: STANDARD PLATE) is “active; positive”.

Regarding `[Be+2]`, the mutagenic call is “inactive; negative” under setting [6]; “inactive; negative” (Test System: AMES SALMONELLA TYPHIMURIUM, Strain/Indicator: TA98, Metabolic Activation: RAT, LIVER, S-9, (10%), Method: PREINCUBATION); “inactive; negative” under setting [7]; “inactive; negative” (Test System: AMES SALMONELLA TYPHIMURIUM, Strain/Indicator: TA100, Metabolic Activation: RAT,LIVER, S-9 (10%), Method: PREINCUBATION).

Turning to `CCn1c(N)nc2c3nc(C)cnc3ccc21`, the mutagenic call (Test System: AMES SALMONELLA TYPHIMURIUM, Strain/Indicator: TA98, Metabolic Activation: RAT, LIVER, S-9, AROCLOR 1254, Method: PREINCUBATION) was “active; positive”.

Consider `O=C1Cc2cc3cc([N+](=O)[O-])ccc3cc2[C@H](O)[C@H]1O`, for which the mutagenic call reads like this: under setting [2], “inactive; negative”; under setting [3], “inactive; negative”.

Take `CCN(CC)CCCNC(=O)C(=O)N/N=C/c1ccc([N+](=O)[O-])o1`: under setting [8], the mutagenic call was “active; positive”.

`CC(C)(C)OCC1CO1` (stereo unspecified): the mutagenic call (Test System: AMES SALMONELLA TYPHIMURIUM, Strain/Indicator: TA100, Metabolic Activation: HAMSTER, LIVER, S-9, AROCLOR 1254 (30%), Method: PREINCUBATION) is “active; positive”; the mutagenic call under setting [7] was “active; positive”; the mutagenic call (Test System: AMES SALMONELLA TYPHIMURIUM, Strain/Indicator: TA100, Metabolic Activation: RAT, LIVER, S-9, AROCLOR 1254 (30%), Method: PREINCUBATION) was “active; positive”; the mutagenic call (Test System: AMES SALMONELLA TYPHIMURIUM, Strain/Indicator: TA1535, Metabolic Activation: HAMSTER, LIVER, S-9, AROCLOR 1254 (30%), Method: PREINCUBATION) is “active; positive”; the mutagenic call (Test System: AMES SALMONELLA TYPHIMURIUM, Strain/Indicator: TA1535, Metabolic Activation: NONE, Method: PREINCUBATION) is “active; positive”; the mutagenic call (Test System: AMES SALMONELLA TYPHIMURIUM, Strain/Indicator: TA1535, Metabolic Activation: RAT, LIVER, S-9, AROCLOR 1254 (30%), Method: PREINCUBATION) was “active; positive”.

In the case of `C=C1[C@H](O)[C@@]23CC[C@H]4[C@@](C)(CCC[C@@]4(C)C(=O)O)[C@@H]2CC[C@]1(O)C3`, the mutagenic call (Test System: AMES SALMONELLA TYPHIMURIUM, Strain/Indicator: TM677, Metabolic Activation: RAT, LIVER, S-9, AROCLOR 1254, Method: PREINCUBATION) was “inactive; negative”.

In the case of `CC(=O)Nc1ccc(C)c(N)c1`, the mutagenic call runs as follows: under setting [6], “inactive; negative”; (Test System: AMES SALMONELLA TYPHIMURIUM, Strain/Indicator: TA98, Metabolic Activation: RAT, LIVER, S-9, PHENOBARBITAL AND 5,6-BENZOFLAVONE, Method: PREINCUBATION) “active; positive”.

For the compound `O=C(Cl)OCC1c2ccccc2-c2ccccc21`, the mutagenic call reads like this: under setting [2], “inactive; negative”; under setting [3], “inactive; negative”; under setting [1], “inactive; negative”; under setting [4], “inactive; negative”; under setting [9], “inactive; negative”; under setting [10], “inactive; negative”. For the same compound, the mutagenic call runs as follows: under setting [5], “inactive; negative”; under setting [11], “active; positive”.

Take `Cc1nnc2n1-c1ccc(Cl)cc1C(c1ccccc1Cl)=NC2`: the mutagenic call reads like this: under setting [2], “inactive; negative”; under setting [3], “inactive; negative”; under setting [1], “inactive; negative”; under setting [4], “inactive; negative”; (Test System: AMES SALMONELLA TYPHIMURIUM, Strain/Indicator: TA102, Metabolic Activation: NONE, Method: STANDARD PLATE) “inactive; negative”; (Test System: AMES SALMONELLA TYPHIMURIUM, Strain/Indicator: TA102, Metabolic Activation: RAT, LIVER, S-9, AROCLOR 1254, Method: STANDARD PLATE) “inactive; negative”. For the same compound, the mutagenic call reads like this: under setting [9], “inactive; negative”; under setting [10], “inactive; negative”; under setting [5], “inactive; negative”; under setting [11], “inactive; negative”; under setting [8], “inactive; negative”; (Test System: E. COLI, Strain/Indicator: WP2 UVRA, Metabolic Activation: RAT, LIVER, S-9, AROCLOR 1254, Method: STANDARD PLATE) “inactive; negative”.
